# In patent publication US4822892A, “N-heterocyclic platinum complexes” (Chugai Seiyaku Kabushiki Kaisha, priority 1984, dated 1989):
# Tests used:
# Colon 26 carcinoma [1] = test: In vivo antitumor activity against Colon 26 carcinoma, i.p. on days 4, 6 and 8 (Experiment 2); design: species or system CDF1/Crj strain male mouse; settings: 40 mg/kg i.p. on day 4, 6 and 8 after implantation; tumor weighed day 14
# Protocol: A small piece of Colon 26 tumor (1-2 mm^3) was subcutaneously implanted in a lateral region of abdomen of a CDF1 /Crj strain male mouse (7 weeks old). Four days after the implantation, mice with the almost same size of tumor were divided into groups of 5-6 members each, and each mouse was intraperitoneally administered the test compound on day 4, 6, and 8 after implantation in a dose of 40 mg/kg one day. Fourteen days after the implantation, each mouse was sacrificed, and the tumor thereof was weighed to calculate the GIR (%) by the following equation. [formula] where C and T represent the mean weights of tumor of the control group and the group administered the test compound, respectively.
# Colon 26 carcinoma [2] = test: In vivo antitumor activity against Colon 26 carcinoma, single i.p. administration (Experiment 1); design: species or system CDF1/Crj strain male mouse; settings: tumor weighed 10 days after administration
# From the text: A small piece of Colon 26 tumor (1-2 mm^3) was subcutaneously implanted in a lateral region of abdomen of a CDF1 /Crj strain male mouse (6 weeks old). Four days after the implantation, mice with the almost same size of tumor were divided into groups of 5-6 members each, and each mouse was intraperitoneally administered the test compound. Ten days after the administration, each of the mice was sacrificed, and the tumor was weighed to calculate the growth inhibitory ratio (GIR) by the following equation: [formula] wherein C and T represent the mean weights of tumor of the control group and the treated group, respectively.
# Cisplatin (CDDP) which is a known compound was used as a comparison.
# [3] = Test on side-effects: body weight and BUN (Experiment 4); type: in vivo, BDF1/Crj strain male mice
# From the text: BDF1 /Crj strain male mice (6 weeks old) were intraperitoneally administered the test compound, and 1, 3 and 5 days after the administration, 3 mice were saceificed to determine the body weight and the level of urea nitrogen in blood (abbreviated as BUN).
# [4] = cited from earlier work
# plasma proteins = test: In vitro binding to plasma proteins (Experiment 3); type: in vitro ADME, SD strain rat; settings: 37° C., 5 μg/ml of Pt, rat plasma
# Protocol: A solution of the test compound was added to plasma obtained from SD strain rat at a ratio of 1:19 by volume which corresponded to 5 μg/ml of Pt. The mixture was incubated at 37° C. under dark. At a predetermined time, the mixture was sampled, and filtered with a molecular sieve membrane (manufactured by Amico Centriflow PMS) under centrifugation. The Pt content in the filtrate unbound Pt was assayed by an atomic absorption spectrophotometry.
# [5] = 12 mg/kg i.p., 1 day after administration
# [6] = 12 mg/kg i.p., 3 days after administration
# [7] = 12 mg/kg i.p., 5 days after administration
# [8] = 60 mg/kg i.p., 1 day after administration
# [9] = 60 mg/kg i.p., 3 days after administration
# [10] = 60 mg/kg i.p., 5 days after administration
compound,measurement,setting,value
"NC[C@H]1CCCN1.O=C([O-])C1(C(=O)[O-])CCC1.[Pt+2] [Compound 1, 1,1-cyclobutanedicarboxylate(2-aminomethylpyrrolidine)platinum(II)]",CIR,Colon 26 carcinoma [1],98%
same,GIR (growth inhibitory ratio),Colon 26 carcinoma [2]; 40 mg/kg i.p. single,79%
same,GIR (growth inhibitory ratio),Colon 26 carcinoma [2]; 60 mg/kg i.p. single,87%
same,GIR (growth inhibitory ratio),Colon 26 carcinoma [2]; 80 mg/kg i.p. single,98%
same,GIR (growth inhibitory ratio),Colon 26 carcinoma [2]; 120 mg/kg i.p. single,97%
same,GIR (growth inhibitory ratio),Colon 26 carcinoma [2]; 160 mg/kg i.p. single,died
"[NH2][Pt]([NH2])([Cl])[Cl] [CDDP, cisplatin, reference compound]","BUN (urea nitrogen in blood, mean ± SD)",[3]; [5],23.3 ± 4.7 mg/dL
same,Body weight (mean ± SD),[3]; [5],24.6 ± 1.1 g
same,"BUN (urea nitrogen in blood, mean ± SD)",[3]; [6],38.5 ± 28.9 mg/dL
same,Body weight (mean ± SD),[3]; [6],22.55 ± 1.1 g
same,"BUN (urea nitrogen in blood, mean ± SD)",[3]; [7],65.2 ± 31.5 mg/dL
same,Body weight (mean ± SD),[3]; [7],19.0 ± 1.5 g
same,antitumor activity (in words),"[4]; Rosenberg et al, Nature 222, 385 (1969)",has antitumor activity
same,nephrotoxicity (in words),[4]; known platinum complexes including CDDP,very serious nephrotoxicity
same,Percent binding to plasma proteins,plasma proteins; 1 hr incubation,16%
same,Percent binding to plasma proteins,plasma proteins; 4 hr incubation,62%
same,Percent binding to plasma proteins,plasma proteins; 8 hr incubation,86%
same,Percent binding to plasma proteins,plasma proteins; 24 hr incubation,93%
same,GIR (growth inhibitory ratio),Colon 26 carcinoma [2]; 4 mg/kg i.p. single,26%
same,GIR (growth inhibitory ratio),Colon 26 carcinoma [2]; 6 mg/kg i.p. single,51%
same,GIR (growth inhibitory ratio),Colon 26 carcinoma [2]; 8 mg/kg i.p. single,62%
same,GIR (growth inhibitory ratio),Colon 26 carcinoma [2]; 12 mg/kg i.p. single,79%
same,GIR (growth inhibitory ratio),Colon 26 carcinoma [2]; 16 mg/kg i.p. single,died
"(S)-1,1-cyclobutanedicarboxylate(2-aminomethylpyrrolidine)platinum(II) [Compound 2]","BUN (urea nitrogen in blood, mean ± SD)",[3]; [8],20.0 ± 2.6 mg/dL
same,Body weight (mean ± SD),[3]; [8],23.1 ± 1.4 g
same,"BUN (urea nitrogen in blood, mean ± SD)",[3]; [9],17.7 ± 3.1 mg/dL
same,Body weight (mean ± SD),[3]; [9],19.9 ± 1.6 g
same,"BUN (urea nitrogen in blood, mean ± SD)",[3]; [10],15.4 ± 5.5 mg/dL
same,Body weight (mean ± SD),[3]; [10],17.9 ± 1.1 g
same,CIR,Colon 26 carcinoma [1],99%
same,GIR (growth inhibitory ratio),Colon 26 carcinoma [2]; 40 mg/kg i.p. single,73%
same,GIR (growth inhibitory ratio),Colon 26 carcinoma [2]; 60 mg/kg i.p. single,88%
same,GIR (growth inhibitory ratio),Colon 26 carcinoma [2]; 80 mg/kg i.p. single,94%
same,GIR (growth inhibitory ratio),Colon 26 carcinoma [2]; 120 mg/kg i.p. single,98%
same,GIR (growth inhibitory ratio),Colon 26 carcinoma [2]; 160 mg/kg i.p. single,died
cis-dichloro-trans-dihydroxy(2-aminomethylazetidine)platinum(IV) [Compound 19],GIR (growth inhibitory ratio),Colon 26 carcinoma [2]; 40 mg/kg i.p. single,60%
same,GIR (growth inhibitory ratio),Colon 26 carcinoma [2]; 60 mg/kg i.p. single,77%
same,GIR (growth inhibitory ratio),Colon 26 carcinoma [2]; 80 mg/kg i.p. single,85%
same,GIR (growth inhibitory ratio),Colon 26 carcinoma [2]; 120 mg/kg i.p. single,92%
same,GIR (growth inhibitory ratio),Colon 26 carcinoma [2]; 160 mg/kg i.p. single,95%
"(R)-1,1-cyclobutanedicarboxylate(2-aminomethylpyrrolidine)platinum(II) [Compound 3]","BUN (urea nitrogen in blood, mean ± SD)",[3]; [8],18.3 ± 3.1 mg/dL
same,Body weight (mean ± SD),[3]; [8],23.4 ± 1.5 g
same,"BUN (urea nitrogen in blood, mean ± SD)",[3]; [9],13.8 ± 1.8 mg/dL
same,Body weight (mean ± SD),[3]; [9],20.1 ± 1.2 g
same,"BUN (urea nitrogen in blood, mean ± SD)",[3]; [10],13.8 ± 7.6 mg/dL
same,Body weight (mean ± SD),[3]; [10],17.5 ± 0.7 g
same,CIR,Colon 26 carcinoma [1],95%
same,GIR (growth inhibitory ratio),Colon 26 carcinoma [2]; 40 mg/kg i.p. single,70%
same,GIR (growth inhibitory ratio),Colon 26 carcinoma [2]; 60 mg/kg i.p. single,85%
same,GIR (growth inhibitory ratio),Colon 26 carcinoma [2]; 80 mg/kg i.p. single,90%
same,GIR (growth inhibitory ratio),Colon 26 carcinoma [2]; 120 mg/kg i.p. single,95%
same,GIR (growth inhibitory ratio),Colon 26 carcinoma [2]; 160 mg/kg i.p. single,died
